Assay results reported in patent US9056110B2, “Substituted pyrimidinone-phenyl-pyrimidinyl compounds” (Confluence Life Sciences, Inc., priority 2011, dated 2015).

Tests used:
p38α/MK2 = p38α/MK2 (Homo sapiens, UniProt Q16539); assay: p38α/MK2 cascade assay (IMAP, Hsp27 peptide phosphorylation); assay type: biochemical; conditions: for IC50: p38α/MK2 cascade, Hsp27 peptide 1 μM, MgATP 10 μM, 120 minutes, read-out: p38/MK2 IC50; for Selectivity Ratio: ratio of p38α/PRAK:p38α/MK2 IC50 values
Protocol: (§1) P38 inhibitory potency and P38/MK2 substrate selectivity: The novel, MK2 substrate-selective inhibitory mechanism of compounds is evaluated in enzyme assays that compare inhibitor potency in blocking p38/MK2 versus p38/PRAK induced phosphorylation of an HSP-27 derived peptide substrate. The ability of compounds to inhibit activated phospho-p38α is evaluated using a p38α/MK2 and a p38α/PRAK cascade assay format. The kinase activity of p38α is determined by its ability to phosphorylate and activate GST-MK2 or GST-PRAK. The kinase activity of activated MK2 and PRAK is followed by measuring the phosphorylation of a fluorescently-labeled, peptide substrate based on the sequence of Hsp27 (FITC-KKKALSRQLSVAA). The phosphorylation of the Hsp27 peptide is quantified using IMAP assay technology (Molecular Devices) and the Analyst HT plate reader (LJL Biosystems). Kinase reactions are carried out in a 384-well plate (Corning 3575) in 20 mM HEPES pH 7.5, 10 mM MgCl2, 0.0005% Tween-20, 0.01% BSA, 1 mM DTT, and 2% DMSO. The inhibitor concentration varies between 0.5-30,000 nM, while the Hsp27 peptide substrate and MgATP are held constant at 1 μM and 10 μM, respectively. Activated p38α is added to a final concentration of 20 pM for reactions with 1 nM nonphosphorylated 1 nM GST-MK2. For the p38α/PRAK cascade, unactivated GST-PRAK is held constant at 10 nM while p38α is added to a final concentration of […]. Kinase reactions are incubated at room temperature and quenched after 120 minutes by the addition of 1× Progressive Binding Buffer A containing 1×IMAP beads (IMAP FP Progressive Screening Express Kit, Molecular Devices Catalog Number R8127). Inhibitor potency is calculated by fitting dose-response data to the 4-parameter logistical IC50 equation. The substrate selectivity is calculated as a ratio of p38α/PRAK:p38α/MK2 IC50 values. A substrate selective inhibitor will have a p38α/PRAK:p38α/MK2 IC50 ratio of >2 while a classical p38 inhibitor will have a ratio of between 0.5-2. […] By way of example, the enhanced therapeutic benefit could be associated with a reduction in inhibition of p38 mediated anti-inflammatory functions, such as IL-10 production and TAB1 phosphorylation. An increased safety profile is expected based, for example, on a reduced inhibition of p38 substrates, such as PPARg and CDC25 phosphatase and PLA2 involved in gluconeogenesis and cell cycle regulation, respectively.

p38α/PRAK = p38α/PRAK (Homo sapiens, UniProt Q16539); assay: p38α/PRAK cascade assay (IMAP, Hsp27 peptide phosphorylation); assay type: biochemical; conditions: Hsp27 peptide 1 μM, MgATP 10 μM, 120 minutes, read-out: p38/PRAK IC50
Protocol: as §1

TNFα = assay: LPS stimulated TNFα production in human PBMCs (ELISA); assay type: cell-based; conditions: PBMC, LPS 0.1 μg/ml, 18-24 hours, read-out: PBMC Cell, TNFα IC50
Protocol: Evaluation of the potency and efficacy of p38 inhibitors to block cytokine production is carried out using the human U937 cell line and purified human PBMCs (peripheral blood mononuclear cells). The U937 human pre-monocytic cell line is obtained from the American Type Culture Collection (Rockville, Md.). These cells are differentiated to a monocytic/macrophage phenotype as described by Burnette (Burnette et al., (2009). SD0006: a potent, selective and orally available inhibitor of p38 kinase, Pharmacology 84(1):42-60). Differentiated U937 cells are seeded into 96-well tissue culture plates (200,000 cells/well) in complete media. After 24 hours, the cells are pretreated for 60 minutes in the presence or absence of compound and then stimulated with LPS (lipopolysaccharide) (0.1 μg/mL) for 4 hours. Culture media are then collected for determination of TNFα or IL-6 levels by ELISA. Human PBMCs are isolated from leukopacks as described by Burnette (Burnette et al., (2009), op. cit.). The cells are seeded into 96-well tissue culture plates (200,000 cells/well) in complete media. After a one hour recovery period at 37° C., 5% CO2, the cells are pretreated for 60 minutes in the presence or absence of compound and then stimulated with LPS (0.1 μg/ml) for 18-24 hours. Culture media are then collected for determination of TNFα and IL1β by ELISA. Cytokine concentrations are extrapolated from recombinant protein standard curves using a four-parameter logistic model and solving for IC50 after iterating to the best least-squares fit. p38 inhibitors will show a dose dependent inhibition of LPS stimulated TNFα, and IL6 in differentiated U937 cells and a dose dependent inhibition of LPS stimulated TNFα, IL6 and IL1b in human PBMCs. As drugs that down-regulate TNFα, IL6 and IL1b are efficacious in a number of autoimmune, autoinflammatory inflammatory, cardiovascular and oncological diseases, it would be expected that p38 drugs that inhibit these cytokines and other enzymes and mediators of disease will be effective drugs. Species compounds of Formula (I), described hereinabove, evaluated in this assay, are expected to provide a therapeutic benefit in the treatment of p38 kinase mediated diseases, including lymphoma and inflammation.

Chain of p38α/MK2 (Q16539 whole entry): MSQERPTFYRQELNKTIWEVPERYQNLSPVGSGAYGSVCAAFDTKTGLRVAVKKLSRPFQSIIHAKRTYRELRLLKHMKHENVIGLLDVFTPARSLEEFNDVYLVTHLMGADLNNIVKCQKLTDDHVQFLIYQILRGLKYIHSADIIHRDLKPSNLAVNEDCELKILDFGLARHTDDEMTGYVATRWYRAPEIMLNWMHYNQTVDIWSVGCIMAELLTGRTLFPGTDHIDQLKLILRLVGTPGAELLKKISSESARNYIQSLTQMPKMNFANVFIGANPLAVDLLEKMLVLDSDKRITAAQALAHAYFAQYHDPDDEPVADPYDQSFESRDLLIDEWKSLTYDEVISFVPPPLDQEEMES
Chain of p38α/MK2 (P49137 whole entry partner): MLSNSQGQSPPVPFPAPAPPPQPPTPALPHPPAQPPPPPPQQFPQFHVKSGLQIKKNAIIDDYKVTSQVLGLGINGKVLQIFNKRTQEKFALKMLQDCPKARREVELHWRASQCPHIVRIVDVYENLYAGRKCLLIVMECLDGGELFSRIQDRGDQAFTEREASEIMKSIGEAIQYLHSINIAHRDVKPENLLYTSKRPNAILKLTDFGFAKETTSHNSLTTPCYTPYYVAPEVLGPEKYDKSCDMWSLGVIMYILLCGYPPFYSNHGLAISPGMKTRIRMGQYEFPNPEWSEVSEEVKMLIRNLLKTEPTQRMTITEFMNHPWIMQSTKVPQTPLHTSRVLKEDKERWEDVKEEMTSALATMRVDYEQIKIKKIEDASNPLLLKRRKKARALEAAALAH
Chain of p38α/PRAK (Q16539 whole entry): as the sequence (Q16539 whole entry) above

| SMILES | IC50 (p38α/MK2) | Selectivity Ratio (p38α/MK2) | IC50 (p38α/PRAK) | IC50 (TNFα) |
| --- | --- | --- | --- | --- |
| Cc1nc(COc2nc(C)n(-c3cc(-c4ccnc(C(C)(C)O)n4)ccc3C)c(=O)c2Cl)cs1 [Example 12, 5-chloro-3-(5-(2-(2-hydroxypropan-2-yl)pyrimidin-4-yl)-2-methylphenyl)-2-methyl-6-((2-methylthiazol-4-yl)methoxy)pyrimidin-4(3H)-one] | 76 nM | 17.9 | 1360 nM | 118 nM |
| Cc1cccc(COc2nc(C)n(-c3cc(-c4ccnc(C(C)(C)O)n4)ccc3C)c(=O)c2Br)n1 [Example 13, 5-bromo-3-(5-(2-(2-hydroxypropan-2-yl)pyrimidin-4-yl)-2-methylphenyl)-2-methyl-6-((6-methylpyridin-2-yl)methoxy)pyrimidin-4(3H)-one] | 83 nM | 15.4 | 1280 nM | 140 nM |
| Cc1cccc(COc2nc(C)n(-c3cc(-c4ccnc(C(C)(C)O)n4)ccc3C)c(=O)c2Cl)n1 [Example 15, (−)-5-chloro-3-(5-(2-(2-hydroxypropan-2-yl)pyrimidin-4-yl)-2-methylphenyl)-2-methyl-6-((6-methylpyridin-2-yl)methoxy)pyrimidin-4(3H)-one] | 52 nM | 23.6 | 1230 nM | 70 nM |
| Cc1ccc(-c2ccnc(C(C)(C)O)n2)cc1-n1c(C)nc(OCc2cccc(C(F)(F)F)n2)c(Cl)c1=O [Example 17, 5-chloro-3-(5-(2-(2-hydroxypropan-2-yl)pyrimidin-4-yl)-2-methylphenyl)-2-methyl-6-((6-(trifluoromethyl)pyridin-2-yl)methoxy)pyrimidin-4(3H)-one] | 1700 nM | >17.6 | > 30000 nM | 3750 nM |
| Cc1ccc(-c2ccnc(C(C)(C)O)n2)cc1-n1c(C)nc(OCc2cccc(F)n2)c(Cl)c1=O [Example 18, 5-chloro-6-((6-fluoropyridin-2-yl)methoxy)-3-(5-(2-(2-hydroxypropan-2-yl)pyrimidin-4-yl)-2-methylphenyl)-2-methylpyrimidin-4(3H)-one] | 579 nM | 13.3 | 7690 nM | 624 nM |
| Cc1ccc(-c2ccnc(C(C)(C)O)n2)cc1-n1c(C)nc(OCc2ncc(F)cc2F)c(Cl)c1=O [Example 21, (−)-5-chloro-6-((3,5-difluoropyridin-2-yl)methoxy)-3-(5-(2-(2-hydroxypropan-2-yl)pyrimidin-4-yl)-2-methylphenyl)-2-methylpyrimidin-4(3H)-one] | 33 nM | 7.63 | 252 nM | 96 nM |
| Cc1ccc(-c2ccnc(C(C)(C)O)n2)cc1-n1c(C)nc(OCc2ccc(F)c(C)c2F)c(Cl)c1=O [Example 22, 5-chloro-6-(2,4-difluoro-3-methyl-benzyloxy)-3-{5-[2-(1-hydroxy-1-methyl-ethyl)-pyrimidin-4-yl]-2-methyl-phenyl}-2-methyl-3H-pyrimidin-4-one] | 386 nM | 15.1 | 5820 nM | 215 nM |
| Cc1cc(COc2nc(C)n(-c3cc(-c4ccnc(C(C)(C)O)n4)ccc3C)c(=O)c2Cl)c(F)cc1F [Example 23, 5-chloro-6-((2,4-difluoro-5-methylbenzyl)oxy)-3-(5-(2-(2-hydroxypropan-2-yl)pyrimidin-4-yl)-2-methylphenyl)-2-methylpyrimidin-4(3H)-one] | 44 nM | 11.7 | 514 nM | 74 nM |
